Measurements reported in ChEMBL document CHEMBL3046635, “Synthesis and Herbicidal Activity of New Pyrazole-4-carboxamide Derivatives” (J Pestic Sci, 2004).
Active and inactive are the calls of the source.

Assays:
Cyperus difformis [1] = assay: Pre-emergence herbicidal activity against Cyperus difformis assessed as bleaching of stem/leaf parts; assay type: functional, organism-based
Lindernia procumbens [2] = assay: Post-emergence herbicidal activity against Lindernia procumbens assessed as bleaching of stem/leaf parts; assay type: functional, organism-based; also: test concentration or dose not given here
Echinochloa oryzicola [3] = assay: Pre-emergence herbicidal activity against Echinochloa oryzicola assessed as bleaching of stem/leaf parts; assay type: functional, organism-based
Rotala indica [4] = assay: Pre-emergence herbicidal activity against Rotala indica at 500 g a.i/ha measured after 14 days; assay type: functional, organism-based
Ammannia multiflora [5] = assay: Pre-emergence herbicidal activity against Ammannia multiflora at 500 g a.i/ha measured after 14 days; assay type: functional, organism-based
Echinochloa oryzicola [6] = assay: Post-emergence herbicidal activity against Echinochloa oryzicola assessed as bleaching of stem/leaf parts; assay type: functional, organism-based; also: test concentration or dose not given here
Elatine triandra [7] = assay: Pre-emergence herbicidal activity against Elatine triandra at 500 g a.i/ha measured after 14 days; assay type: functional, organism-based
Eleocharis acicularis [8] = assay: Pre-emergence herbicidal activity against Eleocharis acicularis at 500 g a.i/ha measured after 14 days; assay type: functional, organism-based
Ammannia multiflora [9] = assay: Post-emergence herbicidal activity against Ammannia multiflora assessed as bleaching of stem/leaf parts; assay type: functional, organism-based; also: test concentration or dose not given here
Rotala indica [10] = assay: Pre-emergence herbicidal activity against Rotala indica assessed as bleaching of stem/leaf parts; assay type: functional, organism-based
[11] = test system: Schoenoplectiella juncoides; assay: Post-emergence herbicidal activity against Schoenoplectiella juncoides assessed as bleaching of stem/leaf parts; assay type: functional, organism-based; also: test concentration or dose not given here
Pontederia vaginalis [12] = assay: Pre-emergence herbicidal activity against Monochoria vaginalis assessed as bleaching of stem/leaf parts; assay type: functional, organism-based
Echinochloa oryzicola [13] = assay: Pre-emergence herbicidal activity against Echinochloa oryzicola at 500 g a.i/ha measured after 14 days; assay type: functional, organism-based
[14] = test system: Schoenoplectiella juncoides; assay: Pre-emergence herbicidal activity against Schoenoplectiella juncoides assessed as bleaching of stem/leaf parts; assay type: functional, organism-based
Cyperus difformis [15] = assay: Pre-emergence herbicidal activity against Cyperus difformis at 500 g a.i/ha measured after 14 days; assay type: functional, organism-based
Eleocharis acicularis [16] = assay: Post-emergence herbicidal activity against Eleocharis acicularis assessed as bleaching of stem/leaf parts; assay type: functional, organism-based; also: test concentration or dose not given here
Cyperus difformis [17] = assay: Post-emergence herbicidal activity against Cyperus difformis assessed as bleaching of stem/leaf parts; assay type: functional, organism-based; also: test concentration or dose not given here
Lindernia procumbens [18] = assay: Pre-emergence herbicidal activity against Lindernia procumbens at 500 g a.i/ha measured after 14 days; assay type: functional, organism-based
Eleocharis acicularis [19] = assay: Pre-emergence herbicidal activity against Eleocharis acicularis assessed as bleaching of stem/leaf parts; assay type: functional, organism-based
Pontederia vaginalis [20] = assay: Post-emergence herbicidal activity against Monochoria vaginalis assessed as bleaching of stem/leaf parts; assay type: functional, organism-based; also: test concentration or dose not given here
Pontederia vaginalis [21] = assay: Pre-emergence herbicidal activity against Monochoria vaginalis at 500 g a.i/ha measured after 14 days; assay type: functional, organism-based
Ammannia multiflora [22] = assay: Pre-emergence herbicidal activity against Ammannia multiflora assessed as bleaching of stem/leaf parts; assay type: functional, organism-based
[23] = test system: Schoenoplectiella juncoides; assay: Pre-emergence herbicidal activity against Schoenoplectiella juncoides at 500 g a.i/ha measured after 14 days; assay type: functional, organism-based
Oryza sativa = assay: Phytotoxicity against Oryza sativa cv. Koshihikari (rice) at 500 g a.i/ha measured after 14 days; assay type: organism-based; conditions: in vivo, 336 h
Lindernia procumbens [24] = assay: Pre-emergence herbicidal activity against Lindernia procumbens assessed as bleaching of stem/leaf parts; assay type: functional, organism-based
Elatine triandra [25] = assay: Post-emergence herbicidal activity against Elatine triandra assessed as bleaching of stem/leaf parts; assay type: functional, organism-based; also: test concentration or dose not given here
Elatine triandra [26] = assay: Pre-emergence herbicidal activity against Elatine triandra assessed as bleaching of stem/leaf parts; assay type: functional, organism-based
Rotala indica [27] = assay: Post-emergence herbicidal activity against Rotala indica assessed as bleaching of stem/leaf parts; assay type: functional, organism-based; also: test concentration or dose not given here

With C#CCNC(=O)c1cn(C)nc1OCc1cccc(C(F)(F)F)c1 the Activity (Cyperus difformis [1]) was “Active”, the Activity (Lindernia procumbens [2]) was “Active” and the Activity (Echinochloa oryzicola [3]) was “Active”. For the same molecule, the Activity (Rotala indica [4]) was “inactive”, the Activity (Ammannia multiflora [5]) was “inactive” and the Activity (Echinochloa oryzicola [6]) was “Active”. The Activity (Elatine triandra [7]) was “inactive”, the Activity (Eleocharis acicularis [8]) was “inactive” and the Activity (Ammannia multiflora [9]) was “Active”. For the same molecule, the Activity (Rotala indica [10]) was “Active”, the Activity [11] was “Active” and the Activity (Pontederia vaginalis [12]) was “Active”. For the same molecule, the Activity (Echinochloa oryzicola [13]) was “inactive”, the Activity [14] was “Active” and the Activity (Cyperus difformis [15]) was “inactive”. For the same molecule, the Activity (Eleocharis acicularis [16]) was “Active”, the Activity (Cyperus difformis [17]) was “Active” and the Activity (Lindernia procumbens [18]) was “inactive”. For the same molecule, the Activity (Eleocharis acicularis [19]) was “Active”, the Activity (Pontederia vaginalis [20]) was “Active” and the Activity (Pontederia vaginalis [21]) was “inactive”. For the same molecule, the Activity (Ammannia multiflora [22]) was “Active”, the Activity [23] was “inactive” and the Activity (Oryza sativa) was “Non-toxic”. The Activity (Lindernia procumbens [24]) was “Active”, the Activity (Elatine triandra [25]) was “Active” and the Activity (Elatine triandra [26]) was “Active”. For the same molecule, the Activity (Rotala indica [27]) was “Active”.

With CNC(=O)c1cn(C)nc1OCc1cccc(C(F)(F)F)c1 the Activity (Cyperus difformis [1]) was “Active”, the Activity (Lindernia procumbens [2]) was “Active” and the Activity (Echinochloa oryzicola [3]) was “Active”. For the same molecule, the Activity (Rotala indica [4]) was “inactive”, the Activity (Ammannia multiflora [5]) was “inactive” and the Activity (Echinochloa oryzicola [6]) was “Active”. For the same molecule, the Activity (Elatine triandra [7]) was “inactive”, the Activity (Eleocharis acicularis [8]) was “inactive” and the Activity (Ammannia multiflora [9]) was “Active”. The Activity (Rotala indica [10]) was “Active”, the Activity [11] was “Active” and the Activity (Pontederia vaginalis [12]) was “Active”. For the same molecule, the Activity (Echinochloa oryzicola [13]) was “inactive”, the Activity [14] was “Active” and the Activity (Cyperus difformis [15]) was “inactive”. For the same molecule, the Activity (Eleocharis acicularis [16]) was “Active”, the Activity (Cyperus difformis [17]) was “Active” and the Activity (Lindernia procumbens [18]) was “inactive”. For the same molecule, the Activity (Eleocharis acicularis [19]) was “Active”, the Activity (Pontederia vaginalis [20]) was “Active” and the Activity (Pontederia vaginalis [21]) was “inactive”. The Activity (Ammannia multiflora [22]) was “Active”, the Activity [23] was “inactive” and the Activity (Oryza sativa) was “Non-toxic”. The Activity (Lindernia procumbens [24]) was “Active”, the Activity (Elatine triandra [25]) was “Active” and the Activity (Elatine triandra [26]) was “Active”. The Activity (Rotala indica [27]) was “Active”.

Cn1cc(C(=O)Nc2ccc(S(C)(=O)=O)cc2)c(OCc2cccc(C(F)(F)F)c2)n1 was tested, and the Activity (Cyperus difformis [1]) was “Active”, the Activity (Lindernia procumbens [2]) was “Active” and the Activity (Echinochloa oryzicola [3]) was “Active”. The Activity (Rotala indica [4]) was “inactive”, the Activity (Ammannia multiflora [5]) was “inactive” and the Activity (Echinochloa oryzicola [6]) was “Active”. For the same molecule, the Activity (Elatine triandra [7]) was “inactive”, the Activity (Ammannia multiflora [9]) was “Active” and the Activity (Rotala indica [10]) was “Active”. The Activity [11] was “Active”, the Activity (Pontederia vaginalis [12]) was “Active” and the Activity (Echinochloa oryzicola [13]) was “inactive”. The Activity [14] was “Active”, the Activity (Cyperus difformis [15]) was “inactive” and the Activity (Eleocharis acicularis [16]) was “Active”. The Activity (Cyperus difformis [17]) was “Active”, the Activity (Lindernia procumbens [18]) was “inactive” and the Activity (Eleocharis acicularis [19]) was “Active”. For the same molecule, the Activity (Pontederia vaginalis [20]) was “Active”, the Activity (Pontederia vaginalis [21]) was “inactive” and the Activity (Ammannia multiflora [22]) was “Active”. For the same molecule, the Activity [23] was “inactive”, the Activity (Oryza sativa) was “Non-toxic” and the Activity (Lindernia procumbens [24]) was “Active”. The Activity (Elatine triandra [25]) was “Active”, the Activity (Elatine triandra [26]) was “Active” and the Activity (Rotala indica [27]) was “Active”.

In the case of Cn1cc(C(=O)Nc2ccc(C(C)(C)C)cc2)c(OCc2cccc(C(F)(F)F)c2)n1, the Activity (Cyperus difformis [1]) is reported as “Active”, the Activity (Lindernia procumbens [2]) is reported as “Active” and the Activity (Echinochloa oryzicola [3]) is reported as “Active”. For the same molecule, the Activity (Rotala indica [4]) was “inactive”, the Activity (Ammannia multiflora [5]) was “inactive” and the Activity (Echinochloa oryzicola [6]) was “Active”. The Activity (Elatine triandra [7]) was “inactive”, the Activity (Eleocharis acicularis [8]) was “inactive” and the Activity (Ammannia multiflora [9]) was “Active”. The Activity (Rotala indica [10]) was “Active”, the Activity [11] was “Active” and the Activity (Pontederia vaginalis [12]) was “Active”. The Activity (Echinochloa oryzicola [13]) was “inactive”, the Activity [14] was “Active” and the Activity (Cyperus difformis [15]) was “inactive”. The Activity (Eleocharis acicularis [16]) was “Active”, the Activity (Cyperus difformis [17]) was “Active” and the Activity (Lindernia procumbens [18]) was “inactive”. For the same molecule, the Activity (Eleocharis acicularis [19]) was “Active”, the Activity (Pontederia vaginalis [20]) was “Active” and the Activity (Pontederia vaginalis [21]) was “inactive”. For the same molecule, the Activity (Ammannia multiflora [22]) was “Active”, the Activity [23] was “inactive” and the Activity (Oryza sativa) was “Non-toxic”. For the same molecule, the Activity (Lindernia procumbens [24]) was “Active”, the Activity (Elatine triandra [25]) was “Active” and the Activity (Elatine triandra [26]) was “Active”. For the same molecule, the Activity (Rotala indica [27]) was “Active”.

CCCn1cc(C(=O)NOCC)c(OCc2cccc(C(F)(F)F)c2)n1 was tested, and the Activity (Cyperus difformis [1]) was “Active”, the Activity (Lindernia procumbens [2]) was “Active” and the Activity (Echinochloa oryzicola [3]) was “Active”. For the same molecule, the Activity (Rotala indica [4]) was “inactive”, the Activity (Ammannia multiflora [5]) was “inactive” and the Activity (Echinochloa oryzicola [6]) was “Active”. The Activity (Elatine triandra [7]) was “inactive”, the Activity (Eleocharis acicularis [8]) was “inactive” and the Activity (Ammannia multiflora [9]) was “Active”. The Activity (Rotala indica [10]) was “Active”, the Activity [11] was “Active” and the Activity (Pontederia vaginalis [12]) was “Active”. The Activity (Echinochloa oryzicola [13]) was “inactive”, the Activity [14] was “Active” and the Activity (Cyperus difformis [15]) was “inactive”. The Activity (Eleocharis acicularis [16]) was “Active”, the Activity (Cyperus difformis [17]) was “Active” and the Activity (Lindernia procumbens [18]) was “inactive”. For the same molecule, the Activity (Eleocharis acicularis [19]) was “Active”, the Activity (Pontederia vaginalis [20]) was “Active” and the Activity (Pontederia vaginalis [21]) was “inactive”. For the same molecule, the Activity (Ammannia multiflora [22]) was “Active”, the Activity [23] was “inactive” and the Activity (Oryza sativa) was “Non-toxic”. For the same molecule, the Activity (Lindernia procumbens [24]) was “Active”, the Activity (Elatine triandra [25]) was “Active” and the Activity (Elatine triandra [26]) was “Active”. For the same molecule, the Activity (Rotala indica [27]) was “Active”.

In the case of Cn1cc(C(=O)Nc2cccc(Cl)c2)c(OCc2cccc(C(F)(F)F)c2)n1, the Activity (Cyperus difformis [1]) is reported as “Active”, the Activity (Lindernia procumbens [2]) is reported as “Active” and the Activity (Echinochloa oryzicola [3]) is reported as “Active”. For the same molecule, the Activity (Rotala indica [4]) was “Active”, the Activity (Ammannia multiflora [5]) was “Active” and the Activity (Echinochloa oryzicola [6]) was “Active”. For the same molecule, the Activity (Elatine triandra [7]) was “Active”, the Activity (Ammannia multiflora [9]) was “Active” and the Activity (Rotala indica [10]) was “Active”. For the same molecule, the Activity [11] was “Active”, the Activity (Pontederia vaginalis [12]) was “Active” and the Activity (Echinochloa oryzicola [13]) was “inactive”. The Activity [14] was “Active”, the Activity (Cyperus difformis [15]) was “inactive” and the Activity (Eleocharis acicularis [16]) was “Active”. For the same molecule, the Activity (Cyperus difformis [17]) was “Active”, the Activity (Lindernia procumbens [18]) was “Active” and the Activity (Eleocharis acicularis [19]) was “Active”. The Activity (Pontederia vaginalis [20]) was “Active”, the Activity (Pontederia vaginalis [21]) was “inactive” and the Activity (Ammannia multiflora [22]) was “Active”. For the same molecule, the Activity [23] was “Active”, the Activity (Oryza sativa) was “Non-toxic” and the Activity (Lindernia procumbens [24]) was “Active”. For the same molecule, the Activity (Elatine triandra [25]) was “Active”, the Activity (Elatine triandra [26]) was “Active” and the Activity (Rotala indica [27]) was “Active”.
